The test concerns Human hepatoma PLC/PRF/5 cells. As to the kind of experiment: Photodynamic damage (PDD), survival rate of cells versus concentration after irradiation. Type of test: cell-based. An excerpt: A stands for (P10)-insulin-(chlorin e6); B stands for (β-galactosidase)-insulin-(chlorin e6); C stands for chlorin e6; […] Survival rate of human hepatoma PLC/PRF/5 cells plotted against concentration of compositions and chlorin e6 is depicted in FIGS. 2 and 3.

Where two headings read alike, the source gives them in different places.

Take `C=Cc1c(C)c2cc3nc(c(CC(=O)O)c4[nH]c(cc5nc(cc1[nH]2)C(C)=C5CC)c(C)c4C(=O)O)[C@@H](CCC(=O)O)[C@@H]3C` [chlorin e6]: the EC50 is 11.5 µM (irradiation dose of 12.3 kJ/m^2, read-out: EC50 value (concentration of a semi-maximal effect)) and 0.35 µM (irradiation dose of 96 kJ/m^2, read-out: EC50 value).

The values are drawn from patent US6500800B1, “Composition and method for causing photodynamic damage to target cells” (priority 1996, dated 2002).
